Laboratory results as given in ChEMBL document CHEMBL1687773 (Antimicrob Agents Chemother, 2010).
Calls of active or inactive are those of the source. No cut-off for these calls is given here.

Legend:
[1] = target: D(2) dopamine receptor (Homo sapiens) (UniProt P14416); assay: Inhibition of human dopamine D2 receptor at up to 10 uM
[2] = target: Human immunodeficiency virus type 1 reverse transcriptase (Human immunodeficiency virus 1) (UniProt Q72547); assay: Noncovalent binding affinity to wild type recombinant HIV1 HXB2 reverse transcriptase by protein X-ray crystallography analysis

D(2) dopamine receptor (Homo sapiens), sequence (P14416 whole entry): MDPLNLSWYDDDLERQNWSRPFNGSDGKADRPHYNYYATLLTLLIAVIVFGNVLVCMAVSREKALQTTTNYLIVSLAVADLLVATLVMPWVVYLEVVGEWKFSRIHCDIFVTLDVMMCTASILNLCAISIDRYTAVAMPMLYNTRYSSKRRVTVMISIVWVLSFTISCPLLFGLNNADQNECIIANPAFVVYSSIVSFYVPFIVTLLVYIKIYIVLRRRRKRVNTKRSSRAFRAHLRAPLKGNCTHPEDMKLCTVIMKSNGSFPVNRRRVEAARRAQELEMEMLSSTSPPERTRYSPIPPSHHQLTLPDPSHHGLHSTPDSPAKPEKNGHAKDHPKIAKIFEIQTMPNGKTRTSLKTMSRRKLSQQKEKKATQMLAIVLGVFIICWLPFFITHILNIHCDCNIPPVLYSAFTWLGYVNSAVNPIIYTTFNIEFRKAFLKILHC

CCc1nn(CCO)c(CC)c1Oc1cc(C#N)cc(C#N)c1 [LERSIVIRINE]
inhibition [1]: inactive
Activity [2]: Active
